Literature values as cited in US10507186B2, “Methods and compositions particularly for treatment of attention deficit disorder” (Purdue Pharma L.P., priority 2014, dated 2019).
Counter-ions that a name gives are not always drawn. Like-named read-outs stand apart in the source and are kept apart here.

Tests used:
[1] = test system: ADHD symptoms in patients; settings: long-acting lisdexamfetamine dimesylate

In the case of `COC(=O)C(c1ccccc1)C1CCCCN1` (racemic) [Methylphenidate, dl-threo-methyl-2-phenyl-2-(2-piperidyl)acetate], the degradation amount (as the pH increases to 8.9) is given as “up to 100%”, the stability (in acidic solutions) is given as “relatively stable” and the stability (in basic solutions, hydrolysis of the methyl ester to the free acid) is given as “degraded extensively”.
For `COC(=O)C(c1ccccc1)C1CCCCN1` (stereo not drawn) [Methylphenidate hydrochloride], the solubility (in acetone) is given as “slightly soluble”, the solubility (in alcohol) is given as “soluble” and the solubility (in chloroform) is given as “slightly soluble”. For the same compound, the solubility (in methanol) was “freely soluble” and the solubility (in water) was “freely soluble”.
In the case of lisdexamfetamine dimesylate, the “reported duration of action” value [1] is listed as “up to 14 hours”.
